Where “and” joins values, the source holds several entries; their conditions need not be identical. Identical values can stand only once. Results filed as inconclusive are left out.
System: Lewis lung carcinoma i.m., BDF1 mice, T/C %
Assay: NCI In Vivo Anticancer Drug Screen. Data for tumor model Lewis Lung Carcinoma (intramuscular) in B6D2F1 (BDF1) mice
Method in brief: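 Tumour-bearing mice were dosed with compound, and either their survival or their tumour size was measured. Results were expressed relative to vehicle-treated controls as T/C.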

CC[C@]1(O)C[C@H]2CN(CCc3c([nH]c4ccccc34)[C@@](C(=O)OC)(c3cc4c(cc3OC)N(C=O)[C@H]3[C@@](O)(C(=O)OC)[C@H](OC(C)=O)[C@]5(CC)C=CCN6CC[C@]43[C@@H]65)C2)C1
T/C (endpoint: mean tumor weight (est.), dose: 0.05 mg/kg/injection, schedule: Q01DX009 (ip), vehicle: water, higher = larger tumour): 57 % of control
T/C (endpoint: mean tumor weight (est.), dose: 0.08 mg/kg/injection, schedule: Q01DX009 (ip), vehicle: water, higher = larger tumour): 99 % of control
T/C (endpoint: mean tumor weight (est.), dose: 0.14 mg/kg/injection, schedule: Q01DX009 (ip), vehicle: water, higher = larger tumour): 69 % of control
T/C (endpoint: mean tumor weight (est.), dose: 0.23 mg/kg/injection, schedule: Q01DX009 (ip), vehicle: water, higher = larger tumour): 55 % of control
T/C (endpoint: mean tumor weight, dose: 0.12 mg/kg/injection, schedule: Q01DX011 (ip), vehicle: water, higher = larger tumour): 116 % of control
T/C (endpoint: mean tumor weight, dose: 0.14 mg/kg/injection, schedule: Q01DX009 (ip), vehicle: water, higher = larger tumour): 46 % of control
T/C (endpoint: mean tumor weight, dose: 0.23 mg/kg/injection, schedule: Q01DX009 (ip), vehicle: water, higher = larger tumour): 49 % of control
T/C (endpoint: mean tumor weight, dose: 0.25 mg/kg/injection, schedule: Q01DX011 (ip), vehicle: water, higher = larger tumour): 105 % of control
T/C (endpoint: median survival time, dose: 0.05 mg/kg/injection, schedule: Q01DX004 (ip), vehicle: water, higher = longer survival): 107 % of control
T/C (endpoint: median survival time, dose: 0.05 mg/kg/injection, schedule: Q09DX009 (ip), vehicle: water, higher = longer survival): 92 % of control
T/C (endpoint: median survival time, dose: 0.06 mg/kg/injection, schedule: Q01DX011 (ip), vehicle: water, higher = longer survival): 102 % of control and 104 % of control
T/C (endpoint: median survival time, dose: 0.08 mg/kg/injection, schedule: Q01DX004 (ip), vehicle: water, higher = longer survival): 110 % of control
T/C (endpoint: median survival time, dose: 0.08 mg/kg/injection, schedule: Q09DX009 (ip), vehicle: water, higher = longer survival): 113 % of control
T/C (endpoint: median survival time, dose: 0.12 mg/kg/injection, schedule: Q01DX011 (ip), vehicle: water, higher = longer survival): 92 % of control and 123 % of control
T/C (endpoint: median survival time, dose: 0.14 mg/kg/injection, schedule: Q01DX004 (ip), vehicle: water, higher = longer survival): 98 % of control
T/C (endpoint: median survival time, dose: 0.14 mg/kg/injection, schedule: Q01DX009 (ip), vehicle: none, higher = longer survival): 158 % of control
T/C (endpoint: median survival time, dose: 0.23 mg/kg/injection, schedule: Q01DX004 (ip), vehicle: water, higher = longer survival): 81 % of control
T/C (endpoint: median survival time, dose: 0.23 mg/kg/injection, schedule: Q01DX009 (ip), vehicle: none, higher = longer survival): 121 % of control
T/C (endpoint: median survival time, dose: 0.23 mg/kg/injection, schedule: Q01DX009 (ip), vehicle: water, higher = longer survival): 123 % of control
T/C (endpoint: median survival time, dose: 0.25 mg/kg/injection, schedule: Q01DX011 (ip), vehicle: water, higher = longer survival): 105 % of control
T/C (endpoint: median survival time, dose: 0.39 mg/kg/injection, schedule: Q01DX004 (ip), vehicle: water, higher = longer survival): 56 % of control
T/C (endpoint: median survival time, dose: 0.39 mg/kg/injection, schedule: Q01DX009 (ip), vehicle: none, higher = longer survival): 50 % of control
T/C (endpoint: median survival time, dose: 0.39 mg/kg/injection, schedule: Q09DX009 (ip), vehicle: water, higher = longer survival): 58 % of control
T/C (endpoint: median survival time, dose: 0.65 mg/kg/injection, schedule: Q01DX009 (ip), vehicle: none, higher = longer survival): 36 % of control

CC(C)NCC(=O)c1ccc(O)c(O)c1
T/C (endpoint: mean tumor weight (est.), dose: 42.5 mg/kg/injection, schedule: Q01DX011 (ip), vehicle: saline, higher = larger tumour): 90 % of control
T/C (endpoint: mean tumor weight (est.), dose: 85.0 mg/kg/injection, schedule: Q01DX011 (ip), vehicle: saline, higher = larger tumour): 93 % of control
T/C (endpoint: median survival time, dose: 42.5 mg/kg/injection, schedule: Q01DX011 (ip), vehicle: saline, higher = longer survival): 120 % of control
T/C (endpoint: median survival time, dose: 85.0 mg/kg/injection, schedule: Q01DX011 (ip), vehicle: saline, higher = longer survival): 90 % of control

O=c1[nH]c(=O)n([C@H]2CCCO2)cc1F
T/C (endpoint: mean tumor weight (est.), dose: 39.0 mg/kg/injection, schedule: Q01DX011 (ip), vehicle: saline, higher = larger tumour): 112 % of control
T/C (endpoint: mean tumor weight (est.), dose: 65.0 mg/kg/injection, schedule: Q01DX011 (ip), vehicle: saline, higher = larger tumour): 40 % of control
T/C (endpoint: median survival time, dose: 25.0 mg/kg/injection, schedule: Q04DX004 (ip), vehicle: other, higher = longer survival): 112 % of control
T/C (endpoint: median survival time, dose: 39.0 mg/kg/injection, schedule: Q01DX011 (ip), vehicle: saline, higher = longer survival): 90 % of control
T/C (endpoint: median survival time, dose: 50.0 mg/kg/injection, schedule: Q04DX004 (ip), vehicle: other, higher = longer survival): 100 % of control
T/C (endpoint: median survival time, dose: 65.0 mg/kg/injection, schedule: Q01DX011 (ip), vehicle: saline, higher = longer survival): 119 % of control
T/C (endpoint: median survival time, dose: 100.0 mg/kg/injection, schedule: Q04DX004 (ip), vehicle: other, higher = longer survival): 100 % of control
T/C (endpoint: median survival time, dose: 200.0 mg/kg/injection, schedule: Q04DX004 (ip), vehicle: other, higher = longer survival): 103 % of control

O=c1[nH]cc(F)c(=O)[nH]1
T/C (endpoint: mean tumor weight (est.), dose: 10.0 mg/kg/injection, schedule: Q01DX011 (ip), vehicle: saline with Tween-80, higher = larger tumour): 37 % of control
T/C (endpoint: mean tumor weight (est.), dose: 20.0 mg/kg/injection, schedule: Q01DX011 (ip), vehicle: saline with Tween-80, higher = larger tumour): 9 % of control
T/C (endpoint: mean tumor weight, dose: 5.0 mg/kg/injection, schedule: Q01DX011 (ip), vehicle: other, higher = larger tumour): 93 % of control
T/C (endpoint: mean tumor weight, dose: 5.0 mg/kg/injection, schedule: Q01DX011 (ip), vehicle: saline, higher = larger tumour): 71 % of control
T/C (endpoint: mean tumor weight, dose: 10.0 mg/kg/injection, schedule: Q01DX011 (ip), vehicle: other, higher = larger tumour): 46 % of control
T/C (endpoint: mean tumor weight, dose: 10.0 mg/kg/injection, schedule: Q01DX011 (ip), vehicle: saline, higher = larger tumour): 51 % of control and 57 % of control
T/C (endpoint: mean tumor weight, dose: 20.0 mg/kg/injection, schedule: Q01DX011 (ip), vehicle: other, higher = larger tumour): 18 % of control
T/C (endpoint: mean tumor weight, dose: 20.0 mg/kg/injection, schedule: Q01DX011 (ip), vehicle: saline, higher = larger tumour): 5 % of control
T/C (endpoint: median survival time, dose: 5.0 mg/kg/injection, schedule: Q01DX011 (ip), vehicle: other, higher = longer survival): 100 % of control
T/C (endpoint: median survival time, dose: 6.3 mg/kg/injection, schedule: Q04DX004 (ip), vehicle: saline, higher = longer survival): 112 % of control
T/C (endpoint: median survival time, dose: 10.0 mg/kg/injection, schedule: Q01DX009 (ip), vehicle: saline, higher = longer survival): 112 % of control
T/C (endpoint: median survival time, dose: 10.0 mg/kg/injection, schedule: Q01DX011 (ip), vehicle: other, higher = longer survival): 96 % of control
T/C (endpoint: median survival time, dose: 12.5 mg/kg/injection, schedule: Q04DX004 (ip), vehicle: saline, higher = longer survival): 116 % of control
T/C (endpoint: median survival time, dose: 20.0 mg/kg/injection, schedule: Q01DX009 (ip), vehicle: saline, higher = longer survival): 119 % of control
T/C (endpoint: median survival time, dose: 20.0 mg/kg/injection, schedule: Q01DX011 (ip), vehicle: other, higher = longer survival): 122 % of control
T/C (endpoint: median survival time, dose: 25.0 mg/kg/injection, schedule: Q04DX004 (ip), vehicle: saline, higher = longer survival): 108 % of control
T/C (endpoint: median survival time, dose: 50.0 mg/kg/injection, schedule: Q04DX004 (ip), vehicle: saline, higher = longer survival): 89 % of control

Cc1c(N)nc(C(CC(N)=O)NCC(N)C(N)=O)nc1C(=O)NC(C(=O)NC(C)C(O)C(C)C(=O)NC(C(=O)NCCc1nc(-c2nc(C(=O)NCCCCN=C(N)N)cs2)cs1)C(C)O)C(OC1OC(CO)C(O)C(O)C1OC1OC(CO)C(O)C(OC(N)=O)C1O)c1cnc[nH]1 (stereo unspecified)
T/C (endpoint: median survival time, dose: 3.9 mg/kg/injection, schedule: Q01DX011 (ip), vehicle: saline, higher = longer survival): 122 % of control
T/C (endpoint: median survival time, dose: 6.5 mg/kg/injection, schedule: Q01DX011 (ip), vehicle: saline, higher = longer survival): 112 % of control
T/C (endpoint: median survival time, dose: 10.8 mg/kg/injection, schedule: Q01DX011 (ip), vehicle: saline, higher = longer survival): 150 % of control
T/C (endpoint: median survival time, dose: 18.0 mg/kg/injection, schedule: Q01DX011 (ip), vehicle: saline, higher = longer survival): 170 % of control
T/C (endpoint: median survival time, dose: 30.0 mg/kg/injection, schedule: Q01DX011 (ip), vehicle: saline, higher = longer survival): 168 % of control

Cc1nc2ccccc2nc1CBr
T/C (endpoint: mean tumor weight (est.), dose: 3.2 mg/kg/injection, schedule: Q01DX011 (ip), vehicle: saline with Tween-80, higher = larger tumour): 64 % of control
T/C (endpoint: mean tumor weight (est.), dose: 6.3 mg/kg/injection, schedule: Q01DX011 (ip), vehicle: saline with Tween-80, higher = larger tumour): 80 % of control
T/C (endpoint: mean tumor weight (est.), dose: 12.5 mg/kg/injection, schedule: Q01DX011 (ip), vehicle: saline with Tween-80, higher = larger tumour): 56 % of control
T/C (endpoint: median survival time, dose: 3.2 mg/kg/injection, schedule: Q01DX011 (ip), vehicle: saline with Tween-80, higher = longer survival): 96 % of control
T/C (endpoint: median survival time, dose: 6.3 mg/kg/injection, schedule: Q01DX011 (ip), vehicle: saline with Tween-80, higher = longer survival): 101 % of control
T/C (endpoint: median survival time, dose: 12.5 mg/kg/injection, schedule: Q01DX011 (ip), vehicle: saline with Tween-80, higher = longer survival): 88 % of control

CC(=O)O[C@H]1[C@H]2O[C@]23[C@@H]2CC[C@@H]4C[C@@H](O)CC[C@]4(C)[C@H]2CC[C@]3(C)[C@H]1c1ccc(=O)oc1
T/C (endpoint: mean tumor weight (est.), dose: 7.5 mg/kg/injection, schedule: Q01DX011 (ip), vehicle: other, higher = larger tumour): 94 % of control
T/C (endpoint: median survival time, dose: 7.5 mg/kg/injection, schedule: Q01DX011 (ip), vehicle: other, higher = longer survival): 90 % of control

— PubChem BioAssay AID272 (DTP/NCI, 2004)
